According to patent publication EP4733298A1, “NOVEL TRPM4 ANTAGONISTS AND MEDICAL USE THEREOF” (Universitätsklinikum Hamburg-Eppendorf, priority 2024, dated 2026):

Key:
[1] = molecular target: T1, human TRPM4 (Homo sapiens, UniProt Q8TD43); assay: QPatch assay (automated patch clamp), TRPM4; format: cell-based; conditions: human TRPM4-expressing HEK293 cells, read-out: TRP M4 IC50
T1 construct: host or cells: HEK293, stably expressing
Protocol: QPatchHTX, an automated electrophysiology platform, was used in single hole mode. One day before use human TRPM4- or TRPM5-expressing HEK293 cells were seeded in a T75 flask at a density of 53k cells per cm^2 and at passages < 23. […] The extracellular solution was (in mM): CaCl2 (7), MgCl2 (2), KCl (5), HEPES (10), NaCl (70), NMDG (70); pH 7.4 with NaOH. The intracellular solution was (in mM): HEPES (10), NMDG (100), NaCl (50), EGTA (20), MgCl2 (1), CaCl2 (21); pH 7.2 with HCl. […] This protocol was repeated every 7 seconds. […] FFA was used as reference compound and applied cumulatively with each concentration incubating at a minimum of 20 voltage protocol runs (140 seconds) with the current after addition of FFA being calculated as full block. […] Each compound was measured at least 3 time independently.

[2] = molecular target: T2, kappa (h) (KOP) (agonist radioligand) (Homo sapiens, UniProt P41145); assay: In vitro pharmacology (SafetyScreen44), kappa opioid receptor binding; conditions: Ref. CMP U50488, read-out: Inhibiton (%) kappa (h) (KOP) (agonist radioligand)
T2 construct: purchased Eurofins Cerep Safetyscreen 44 Panel; Study ID FR095-0009609
T2 sequence (P41145 whole entry): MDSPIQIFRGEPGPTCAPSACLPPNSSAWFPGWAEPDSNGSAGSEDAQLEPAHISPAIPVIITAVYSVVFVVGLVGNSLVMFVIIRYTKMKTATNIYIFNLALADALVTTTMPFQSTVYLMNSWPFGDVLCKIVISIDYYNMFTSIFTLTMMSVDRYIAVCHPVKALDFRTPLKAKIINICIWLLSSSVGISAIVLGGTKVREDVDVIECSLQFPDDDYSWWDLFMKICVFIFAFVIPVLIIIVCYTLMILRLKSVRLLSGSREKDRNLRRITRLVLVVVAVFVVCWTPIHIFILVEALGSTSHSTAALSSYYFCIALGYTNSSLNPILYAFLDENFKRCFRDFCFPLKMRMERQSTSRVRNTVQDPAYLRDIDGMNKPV
Protocol: (§1) In vitro assays were used to test absorption, distribution, metabolism, excretion and toxicity (ADMET) parameters for selected compounds. Compound absorption was assessed using parallel artificial membrane permeability (PAMPA) and Caco-2 cell permeability assays (cut-off criterion > 2 × 10^-6 cm s^-1). Compound toxicity was evaluated by measuring inhibition of cytochrome P450 enzymes (CYP), the potassium channel hERG, and TRPM5, with all parameters meeting acceptable criteria (Table 1). To assess potential off-target activity of the compounds that could be relevant for safety in humans, in vitro pharmacology tests using the commercially available and widely used SafetyScreen44 interaction panel^60 covering eight protein families were conducted (Tables 2 and 3). The lack of off-target activities on hERG channels and in vitro pharmacology profiles are promising and consistent with absence of toxicity during in vivo pharmacokinetic assessments, see below. Table 1. In vitro ADMET profile of Series 1 compounds.
(§2) Table 2. In vitro pharmacology profile of representative compounds disclosed herein, i.e. of benzoxazoles according to Formula (I) (CMP 343 and 354). Only inhibitions above 50% relative to the reference compound are shown and considered active. […]

[3] = molecular target: T3, 5-HT2A (h) (agonist radioligand) (Homo sapiens, UniProt P28223); assay: In vitro pharmacology (SafetyScreen44), 5-HT2A binding; conditions: Ref. CMP (±)DOI, read-out: Inhibiton (%) 5-HT2A (h) (agonist radioligand)
T3 construct: purchased Eurofins Cerep Safetyscreen 44 Panel; Study ID FR095-0009609
T3 sequence (P28223 whole entry): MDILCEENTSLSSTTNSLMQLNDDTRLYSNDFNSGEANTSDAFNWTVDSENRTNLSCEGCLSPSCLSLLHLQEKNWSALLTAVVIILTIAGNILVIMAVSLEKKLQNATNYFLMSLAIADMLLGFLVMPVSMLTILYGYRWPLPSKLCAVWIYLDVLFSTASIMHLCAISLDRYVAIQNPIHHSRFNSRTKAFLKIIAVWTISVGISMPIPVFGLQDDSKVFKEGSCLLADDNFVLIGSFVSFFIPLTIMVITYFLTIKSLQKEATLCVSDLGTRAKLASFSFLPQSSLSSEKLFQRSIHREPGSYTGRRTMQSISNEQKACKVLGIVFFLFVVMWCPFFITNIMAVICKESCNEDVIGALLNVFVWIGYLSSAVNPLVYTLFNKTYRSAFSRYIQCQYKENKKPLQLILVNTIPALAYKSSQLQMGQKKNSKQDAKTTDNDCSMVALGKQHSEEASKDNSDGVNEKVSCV
Protocol: as §1, §2

[4] = molecular target: T4, 5-HT2B (h) (agonist radioligand) (Homo sapiens, UniProt P41595); assay: In vitro pharmacology (SafetyScreen44), 5-HT2B binding; conditions: Ref. CMP (±)DOI, read-out: Inhibiton (%) 5-HT2B (h) (agonist radioligand)
T4 construct: purchased Eurofins Cerep Safetyscreen 44 Panel; Study ID FR095-0009609
T4 sequence (P41595 whole entry): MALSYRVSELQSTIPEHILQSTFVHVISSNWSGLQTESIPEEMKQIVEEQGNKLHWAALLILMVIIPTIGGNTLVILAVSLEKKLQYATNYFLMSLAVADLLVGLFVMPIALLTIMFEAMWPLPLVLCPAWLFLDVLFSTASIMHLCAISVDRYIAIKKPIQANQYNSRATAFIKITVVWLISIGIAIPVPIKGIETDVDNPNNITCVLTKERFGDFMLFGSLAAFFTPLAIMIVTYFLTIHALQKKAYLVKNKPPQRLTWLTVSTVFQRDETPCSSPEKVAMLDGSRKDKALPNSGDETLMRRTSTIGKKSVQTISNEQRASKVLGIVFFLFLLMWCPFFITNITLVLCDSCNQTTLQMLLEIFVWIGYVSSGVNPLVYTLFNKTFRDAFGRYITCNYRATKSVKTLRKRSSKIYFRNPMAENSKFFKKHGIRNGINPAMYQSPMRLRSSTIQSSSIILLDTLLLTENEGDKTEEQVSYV
Protocol: as §1, §2

[5] = molecular target: T5, norepinephrine transporter (h) (antagonist radioligand) (Homo sapiens, UniProt P23975); assay: In vitro pharmacology (SafetyScreen44), norepinephrine transporter binding; conditions: Ref. CMP protriptyline, read-out: Inhibiton (%) norepinephrine transporter (h) (antagonist radioligand)
T5 construct: purchased Eurofins Cerep Safetyscreen 44 Panel; Study ID FR095-0009609
T5 sequence (P23975 whole entry): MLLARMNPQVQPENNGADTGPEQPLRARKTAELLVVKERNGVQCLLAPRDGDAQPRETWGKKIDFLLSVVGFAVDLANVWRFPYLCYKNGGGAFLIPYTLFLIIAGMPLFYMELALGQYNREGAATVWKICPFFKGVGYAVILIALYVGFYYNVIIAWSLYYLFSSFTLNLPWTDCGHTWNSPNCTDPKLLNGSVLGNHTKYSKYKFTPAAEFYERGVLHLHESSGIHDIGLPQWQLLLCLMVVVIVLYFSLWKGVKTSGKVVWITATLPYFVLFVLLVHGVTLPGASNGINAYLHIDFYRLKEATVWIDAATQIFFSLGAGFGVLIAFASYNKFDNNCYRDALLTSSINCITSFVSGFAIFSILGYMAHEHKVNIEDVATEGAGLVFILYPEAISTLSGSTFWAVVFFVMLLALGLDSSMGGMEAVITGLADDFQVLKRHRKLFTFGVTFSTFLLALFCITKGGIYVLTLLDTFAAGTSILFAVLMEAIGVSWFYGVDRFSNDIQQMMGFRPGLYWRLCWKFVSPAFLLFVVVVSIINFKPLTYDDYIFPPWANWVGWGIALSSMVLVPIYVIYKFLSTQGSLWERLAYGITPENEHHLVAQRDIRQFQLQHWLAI
Protocol: as §1, §2

[6] = molecular target: T6, dopamine transporter (h) (antagonist radioligand) (Homo sapiens, UniProt Q01959); assay: In vitro pharmacology (SafetyScreen44), dopamine transporter binding; conditions: Ref. CMP BTCP, read-out: Inhibiton (%) dopamine transporter (h) (antagonist radioligand)
T6 construct: purchased Eurofins Cerep Safetyscreen 44 Panel; Study ID FR095-0009609
T6 sequence (Q01959 whole entry): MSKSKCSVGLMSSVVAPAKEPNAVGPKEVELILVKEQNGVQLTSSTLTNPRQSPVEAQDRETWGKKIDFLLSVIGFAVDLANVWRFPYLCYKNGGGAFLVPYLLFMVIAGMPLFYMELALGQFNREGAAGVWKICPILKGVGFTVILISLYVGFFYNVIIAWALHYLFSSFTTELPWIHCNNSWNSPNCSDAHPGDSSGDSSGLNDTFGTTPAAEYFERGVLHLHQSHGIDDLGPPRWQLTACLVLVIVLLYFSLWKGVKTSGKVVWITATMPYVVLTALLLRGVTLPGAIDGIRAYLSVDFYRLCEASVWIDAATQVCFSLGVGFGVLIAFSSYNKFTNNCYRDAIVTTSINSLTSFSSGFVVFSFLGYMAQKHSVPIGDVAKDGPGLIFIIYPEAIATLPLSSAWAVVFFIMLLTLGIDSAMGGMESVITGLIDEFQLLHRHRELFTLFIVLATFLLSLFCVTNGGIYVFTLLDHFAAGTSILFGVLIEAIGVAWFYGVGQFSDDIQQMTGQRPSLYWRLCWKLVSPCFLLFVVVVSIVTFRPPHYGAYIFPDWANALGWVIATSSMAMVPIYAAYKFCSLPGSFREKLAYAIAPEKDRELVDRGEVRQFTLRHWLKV
Protocol: as §1, §2

[7] = molecular target: T7, COX1 (h) (Homo sapiens, UniProt P23219); assay: In vitro pharmacology (SafetyScreen44), COX1; format: biochemical; conditions: Ref. CMP Diclofenac, read-out: Inhibiton (%) COX1 (h)
T7 construct: purchased Eurofins Cerep Safetyscreen 44 Panel; Study ID FR095-0009609
T7 sequence (P23219 24-599): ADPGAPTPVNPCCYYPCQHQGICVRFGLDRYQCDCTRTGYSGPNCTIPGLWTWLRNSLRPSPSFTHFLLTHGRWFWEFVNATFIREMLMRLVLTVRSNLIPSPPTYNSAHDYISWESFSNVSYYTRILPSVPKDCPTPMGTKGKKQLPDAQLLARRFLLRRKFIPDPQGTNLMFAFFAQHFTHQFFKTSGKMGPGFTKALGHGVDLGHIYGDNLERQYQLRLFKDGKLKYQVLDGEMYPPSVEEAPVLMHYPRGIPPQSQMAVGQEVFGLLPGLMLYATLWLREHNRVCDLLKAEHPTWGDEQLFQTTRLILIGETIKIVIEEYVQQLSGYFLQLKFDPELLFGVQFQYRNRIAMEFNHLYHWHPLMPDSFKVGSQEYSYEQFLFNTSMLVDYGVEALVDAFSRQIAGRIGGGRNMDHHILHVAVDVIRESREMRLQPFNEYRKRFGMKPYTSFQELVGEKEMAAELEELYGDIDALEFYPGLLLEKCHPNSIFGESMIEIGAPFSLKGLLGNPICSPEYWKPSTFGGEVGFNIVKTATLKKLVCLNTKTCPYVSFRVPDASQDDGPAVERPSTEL
Protocol: as §1, §2

T1 sequence (Q8TD43 whole entry): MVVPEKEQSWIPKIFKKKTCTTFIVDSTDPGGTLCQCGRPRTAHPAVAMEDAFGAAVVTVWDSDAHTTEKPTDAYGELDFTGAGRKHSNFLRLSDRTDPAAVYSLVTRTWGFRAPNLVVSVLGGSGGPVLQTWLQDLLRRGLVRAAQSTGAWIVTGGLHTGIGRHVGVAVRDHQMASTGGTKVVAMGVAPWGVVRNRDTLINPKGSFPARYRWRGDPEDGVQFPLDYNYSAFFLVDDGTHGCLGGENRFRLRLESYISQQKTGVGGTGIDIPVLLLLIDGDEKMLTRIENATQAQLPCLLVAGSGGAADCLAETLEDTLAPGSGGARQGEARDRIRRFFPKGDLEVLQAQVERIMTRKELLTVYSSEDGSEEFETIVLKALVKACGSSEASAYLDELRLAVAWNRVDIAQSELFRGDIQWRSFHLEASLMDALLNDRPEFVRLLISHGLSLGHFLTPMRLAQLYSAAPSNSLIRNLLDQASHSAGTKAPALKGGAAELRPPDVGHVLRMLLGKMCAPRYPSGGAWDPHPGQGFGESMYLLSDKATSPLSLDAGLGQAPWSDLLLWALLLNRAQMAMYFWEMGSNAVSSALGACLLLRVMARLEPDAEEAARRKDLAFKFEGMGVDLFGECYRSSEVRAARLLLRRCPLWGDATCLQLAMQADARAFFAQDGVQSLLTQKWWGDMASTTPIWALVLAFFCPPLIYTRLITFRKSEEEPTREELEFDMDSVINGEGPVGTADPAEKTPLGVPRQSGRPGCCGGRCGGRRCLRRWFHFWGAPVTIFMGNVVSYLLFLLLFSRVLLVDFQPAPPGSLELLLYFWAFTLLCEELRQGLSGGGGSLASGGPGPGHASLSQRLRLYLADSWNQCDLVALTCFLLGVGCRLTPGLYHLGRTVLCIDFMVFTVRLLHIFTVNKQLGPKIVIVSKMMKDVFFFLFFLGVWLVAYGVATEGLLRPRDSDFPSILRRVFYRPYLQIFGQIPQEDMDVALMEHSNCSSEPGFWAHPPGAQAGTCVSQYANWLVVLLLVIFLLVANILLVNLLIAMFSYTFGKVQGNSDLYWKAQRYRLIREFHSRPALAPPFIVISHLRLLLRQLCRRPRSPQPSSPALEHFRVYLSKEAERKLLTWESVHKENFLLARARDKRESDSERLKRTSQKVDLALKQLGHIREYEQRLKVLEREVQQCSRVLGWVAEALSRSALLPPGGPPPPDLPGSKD

Row | SMILES | IC50 [1] [µM] | inhibition at 5 µM [2] [%] | inhibition at 5 µM [3] [%] | inhibition at 5 µM [4] [%] | inhibition at 5 µM [5] [%] | inhibition at 5 µM [6] [%] | inhibition at 5 µM [7] [%]
1 | Cc1noc(-c2csc(S(=O)(=O)Nc3ccccc3C(F)(F)F)c2)c1C [CMP157] | 0.63 | – | – | – | – | – | –
2 | Fc1cccc(-c2ccccc2NCc2nc3ccccc3o2)c1 [CMP343] | – | 63 | 51 | 70 | 78 | 70 | 56
3 | Cc1ccc(-c2ccccc2NCc2nc3ccccc3o2)s1 [CMP354] | – | – | 73 | 65 | 74 | 64 | –
